Laboratory results published in ChEMBL document CHEMBL4673219, “Novel 5,6-disubstituted pyrrolo[2,3-d]pyrimidine derivatives as broad spectrum antiproliferative agents: Synthesis, cell based assays, kinase profile and molecular docking study” (Bioorg Med Chem, 2018).

Key:
KM12 = assay: Growth inhibition of human KM12 cells assessed as growth percentage at 0.01 uM incubated for 48 hrs by sulforhodamine B assay relative to control; format: functional; details: read-out: Activity
NCI-H460 [1] = assay: Growth inhibition of human NCI-H460 cells assessed as growth percentage at 10 uM incubated for 48 hrs by sulforhodamine B assay relative to control; format: functional; details: read-out: Activity
MDA-MB-468 = assay: Growth inhibition of human MDA-MB-468 cells assessed as growth percentage at 0.01 uM incubated for 48 hrs by sulforhodamine B assay relative to control; format: functional; details: read-out: Activity
SK-MEL-28 = assay: Growth inhibition of human SK-MEL-28 cells assessed as growth percentage at 10 uM incubated for 48 hrs by sulforhodamine B assay relative to control; format: functional; details: read-out: Activity
NCI-H460 [2] = assay: Growth inhibition of human NCI-H460 cells assessed as growth percentage at 1 uM incubated for 48 hrs by sulforhodamine B assay relative to control; format: functional; details: read-out: Activity
NCI-H23 = assay: Growth inhibition of human NCI-H23 cells incubated for 48 hrs by sulforhodamine B assay; format: functional
TK-10 [3] = assay: Growth inhibition of human TK-10 cells assessed as growth percentage at 0.01 uM incubated for 48 hrs by sulforhodamine B assay relative to control; format: functional; details: read-out: Activity
M14 [4] = assay: Growth inhibition of human M14 cells assessed as growth percentage at 10 uM incubated for 48 hrs by sulforhodamine B assay relative to control; format: functional; details: read-out: Activity
UACC-62 [5] = assay: Growth inhibition of human UACC-62 cells assessed as growth percentage at 0.1 uM incubated for 48 hrs by sulforhodamine B assay relative to control; format: functional; details: read-out: Activity
OVCAR-4 = assay: Growth inhibition of human OVCAR-4 cells assessed as growth percentage at 1 uM incubated for 48 hrs by sulforhodamine B assay relative to control; format: functional; details: read-out: Activity
MCF7 [6] = assay: Growth inhibition of human MCF7 cells assessed as growth percentage at 10 uM incubated for 48 hrs by sulforhodamine B assay relative to control; format: functional; details: read-out: Activity
MOLT-4 = assay: Growth inhibition of human MOLT-4 cells assessed as growth percentage at 1 uM incubated for 48 hrs by sulforhodamine B assay relative to control; format: functional; details: read-out: Activity
A549 = assay: Growth inhibition of human A549/ATCC cells incubated for 48 hrs by sulforhodamine B assay; format: functional
IGROV-1 = assay: Growth inhibition of human IGROV-1 assessed as growth percent at 1 uM incubated for 48 hrs by sulforhodamine B assay relative to control; format: functional; details: read-out: Activity
HCC 2998 [7] = assay: Growth inhibition of human HCC 2998 cells assessed as growth percentage at 0.1 uM incubated for 48 hrs by sulforhodamine B assay relative to control; format: functional; details: read-out: Activity
M14 [8] = assay: Growth inhibition of human M14 cells assessed as growth percentage at 0.1 uM incubated for 48 hrs by sulforhodamine B assay relative to control; format: functional; details: read-out: Activity
MDA-MB-231 = assay: Growth inhibition of human MDA-MB-231/ATCC cells assessed as growth percentage at 0.01 uM incubated for 48 hrs by sulforhodamine B assay relative to control; format: functional; details: read-out: Activity
OVCAR-3 = assay: Growth inhibition of human OVCAR-3 cells assessed as growth percentage at 100 uM incubated for 48 hrs by sulforhodamine B assay relative to control; format: functional; details: read-out: Activity
OVCAR-5 = assay: Growth inhibition of human OVCAR-5 cells incubated for 48 hrs by sulforhodamine B assay; format: functional
Hs-578T [9] = assay: Growth inhibition of human Hs-578T cells assessed as growth percentage at 0.1 uM incubated for 48 hrs by sulforhodamine B assay relative to control; format: functional; details: read-out: Activity
Hs-578T [10] = assay: Growth inhibition of human Hs-578T cells assessed as growth percentage at 0.01 uM incubated for 48 hrs by sulforhodamine B assay relative to control; format: functional; details: read-out: Activity
MCF7 [11] = assay: Growth inhibition of human MCF7 cells assessed as growth percentage at 0.01 uM incubated for 48 hrs by sulforhodamine B assay relative to control; format: functional; details: read-out: Activity
SF-295 = assay: Growth inhibition of human SF-295 cells assessed as growth percentage at 10 uM incubated for 48 hrs by sulforhodamine B assay relative to control; format: functional; details: read-out: Activity
DU-145 = assay: Growth inhibition of human DU-145 cells incubated for 48 hrs by sulforhodamine B assay; format: functional; details: DU-145
[12] = biological target: Fibroblast growth factor receptor 1 (Homo sapiens) (UniProt P11362); assay: Inhibition of human FGFR1 at 10 uM using myelin basic protein as substrate incubated for 40 mins in presence of [gamma33P]ATP by scintillation counting method relative to control
Fibroblast growth factor receptor 1 (Homo sapiens), sequence (P11362 22-822 limits assumed): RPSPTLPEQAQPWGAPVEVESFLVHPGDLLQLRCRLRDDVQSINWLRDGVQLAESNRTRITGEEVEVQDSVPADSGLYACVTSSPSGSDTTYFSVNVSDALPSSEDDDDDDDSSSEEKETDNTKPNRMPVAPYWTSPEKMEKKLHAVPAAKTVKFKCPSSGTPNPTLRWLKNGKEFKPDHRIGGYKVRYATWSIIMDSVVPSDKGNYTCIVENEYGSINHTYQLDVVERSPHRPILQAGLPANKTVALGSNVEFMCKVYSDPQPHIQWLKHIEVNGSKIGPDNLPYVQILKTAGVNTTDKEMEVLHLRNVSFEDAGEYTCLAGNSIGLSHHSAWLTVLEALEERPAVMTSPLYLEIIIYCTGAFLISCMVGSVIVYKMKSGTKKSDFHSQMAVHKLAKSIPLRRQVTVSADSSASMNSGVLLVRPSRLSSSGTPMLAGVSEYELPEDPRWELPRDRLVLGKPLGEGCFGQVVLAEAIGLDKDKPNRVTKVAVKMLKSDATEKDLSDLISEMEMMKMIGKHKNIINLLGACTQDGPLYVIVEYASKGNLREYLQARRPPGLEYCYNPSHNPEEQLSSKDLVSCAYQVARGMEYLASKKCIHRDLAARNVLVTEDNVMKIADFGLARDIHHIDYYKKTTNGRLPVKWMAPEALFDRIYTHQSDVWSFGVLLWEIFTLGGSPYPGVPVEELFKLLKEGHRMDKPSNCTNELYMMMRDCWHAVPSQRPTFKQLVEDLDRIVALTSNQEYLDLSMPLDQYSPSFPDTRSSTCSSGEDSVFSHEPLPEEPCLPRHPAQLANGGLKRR

NCI-H460 [13] = assay: Growth inhibition of human NCI-H460 cells assessed as growth percentage at 100 uM incubated for 48 hrs by sulforhodamine B assay relative to control; format: functional; details: read-out: Activity
K562 [14] = assay: Growth inhibition of human K562 cells assessed as growth percentage at 0.01 uM incubated for 48 hrs by sulforhodamine B assay relative to control; format: functional; details: read-out: Activity
MCF7 [15] = assay: Growth inhibition of human MCF7 cells assessed as growth percentage at 100 uM incubated for 48 hrs by sulforhodamine B assay relative to control; format: functional; details: read-out: Activity
COLO 205 = assay: Growth inhibition of human COLO 205 cells assessed as growth percentage at 100 uM incubated for 48 hrs by sulforhodamine B assay relative to control; format: functional; details: read-out: Activity
MDA-MB-435 = assay: Growth inhibition of human MDA-MB-435 cells incubated for 48 hrs by sulforhodamine B assay; format: functional
UACC-62 [16] = assay: Growth inhibition of human UACC-62 cells assessed as growth percentage at 0.01 uM incubated for 48 hrs by sulforhodamine B assay relative to control; format: functional; details: read-out: Activity
TK-10 [17] = assay: Growth inhibition of human TK-10 cells assessed as growth percentage at 100 uM incubated for 48 hrs by sulforhodamine B assay relative to control; format: functional; details: read-out: Activity
SK-MEL-5 = assay: Growth inhibition of human SK-MEL-5 cells assessed as growth percentage at 1 uM incubated for 48 hrs by sulforhodamine B assay relative to control; format: functional; details: read-out: Activity
SN12C = assay: Growth inhibition of human SN12C cells incubated for 48 hrs by sulforhodamine B assay; format: functional
SK-MEL-2 = assay: Growth inhibition of human SK-MEL-2 cells incubated for 48 hrs by sulforhodamine B assay; format: functional
SNB-75 = assay: Growth inhibition of human SNB-75 cells assessed as growth percentage at 0.01 uM incubated for 48 hrs by sulforhodamine B assay relative to control; format: functional; details: read-out: Activity
HCC 2998 [18] = assay: Growth inhibition of human HCC 2998 cells assessed as growth percentage at 10 uM incubated for 48 hrs by sulforhodamine B assay relative to control; format: functional; details: read-out: Activity
K562 [19] = assay: Growth inhibition of human K562 cells incubated for 48 hrs by sulforhodamine B assay; format: functional

`CCCCCCCC(=O)Nc1nc2[nH]c(CN3CCN(Cc4cccc(F)c4)CC3)c(CN3CCN(Cc4cccc(F)c4)CC3)c2c(=O)[nH]1` showed a growth at 0.01 µM (KM12) of 96%, a growth at 10 µM (NCI-H460 [1]) of -82.3% and a growth at 0.01 µM (MDA-MB-468) of 92%. For the same molecule, the growth at 10 µM (SK-MEL-28) was -97%, the growth at 1 µM (NCI-H460 [2]) was 11% and the GI50 (NCI-H23) was 1860 nM. It also gave an LC50 (50% lethal concentration) (NCI-H23) of 8020 nM, a TGI (NCI-H23) of 3860 nM and a growth at 0.01 µM (TK-10 [3]) of 91%. The growth at 10 µM (M14 [4]) was -91.3%, the growth at 0.1 µM (UACC-62 [5]) was 100% and the growth at 1 µM (OVCAR-4) was 63%. The growth at 10 µM (MCF7 [6]) was -72.9%, the growth at 1 µM (MOLT-4) was -15% and the GI50 (A549; 48 h) was 340 nM. The LC50 (A549; Homo sapiens, A549) was 4360 nM, the TGI (A549; Homo sapiens, A549) was 1240 nM and the GI50 (A549; Homo sapiens, A549, 48 h) was 343 nM. The growth at 1 µM (IGROV-1) was 72%, the growth at 0.1 µM (HCC 2998 [7]) was 104% and the growth at 0.1 µM (M14 [8]) was 94%. The growth at 0.01 µM (MDA-MB-231) was 105%, the growth at 100 µM (OVCAR-3) was -73% and the GI50 (OVCAR-5) was 2640 nM. For the same molecule, the TGI (OVCAR-5) was 9270 nM, the growth at 0.1 µM (Hs-578T [9]) was 96% and the growth at 0.01 µM (Hs-578T [10]) was 97%. The growth at 0.01 µM (MCF7 [11]) was 91%, the growth at 10 µM (SF-295) was -69.2% and the GI50 (DU-145) was 1100 nM. The TGI (DU-145) was 2420 nM, the inhibition [12] was 54.5% and the growth at 100 µM (NCI-H460 [13]) was -85%. For the same molecule, the growth at 0.01 µM (K562 [14]) was 102%, the growth at 100 µM (MCF7 [15]) was -63% and the growth at 100 µM (COLO 205) was -94%. For the same molecule, the GI50 (MDA-MB-435; 48 h) was 320 nM, the TGI (MDA-MB-435; Homo sapiens, MDA-MB-435) was 1240 nM and the GI50 (MDA-MB-435; Homo sapiens, MDA-MB-435, 48 h) was 317 nM. It also gave a CC50 (MDA-MB-435; Homo sapiens, MDA-MB-435, read-out: LC50 (the source's name)) of 3770 nM, a growth at 0.01 µM (UACC-62 [16]) of 97% and a growth at 100 µM (TK-10 [17]) of -91%. The growth at 1 µM (SK-MEL-5) was 84%, the GI50 (SN12C) was 1480 nM and the LC50 (SN12C) was 6850 nM. The TGI (SN12C) was 3180 nM, the GI50 (SK-MEL-2; 48 h) was 1570 nM and the TGI (SK-MEL-2; 48 h) was 3030 nM. The GI50 (SK-MEL-2; Homo sapiens, SK-MEL-2, 48 h) was 2210 nM, the TGI (SK-MEL-2; Homo sapiens, SK-MEL-2, 48 h) was 4120 nM and the CC50 (SK-MEL-2; Homo sapiens, SK-MEL-2, read-out: LC50 (the source's name)) was 5870 nM. The growth at 0.01 µM (SNB-75) was 93%, the growth at 10 µM (HCC 2998 [18]) was -81.8% and the GI50 (K562 [19]; 48 h) was 210 nM. The LC50 (concentration killing 50% of cells) (K562 [19]; 48 h) was > 100000 nM, the TGI (K562 [19]; 48 h) was 550 nM and the GI50 (K562 [19]; Homo sapiens, K562, 48 h) was 205 nM. It also gave an LC50 (concentration killing 50% of cells) (K562 [19]; Homo sapiens, K562, 48 h) of 100000 nM and a TGI (K562 [19]; Homo sapiens, K562, 48 h) of 545 nM.
